Assays:
S. pneumoniae D39V [1] = experiment: Bliss interaction score (quartile over a dose matrix) (fitness difference); higher = more antagonism (negative = synergy)
In short: (§1)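 The Bliss score takes observed fitness and subtracts the expected fitness, calculated as a product of single-drug fitness values. Those single-drug values were inferred from the combination data. Fitness is OD595 at entry into stationary phase divided by the plate's robust no-drug mean, capped at 1, and the score is summarised by quartiles across technical, biological and donor/recipient replicates.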

S. aureus DSM 20231 [2] = experiment: as above
In short: as §1

B. subtilis 168 [3] = experiment: as above
In short: as §1

S. aureus Newman [4] = experiment: as above
In short: as §1

S. pneumoniae D39V [5] = experiment: fitness (endpoint OD595 vs no drug) (fraction); higher = more growth
In short: (§2)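 Fitness is computed from the optical density at which cultures reach stationary phase, divided by the robust mean of no-drug control wells. Any value above 1 is set to 1. Cultures started at OD595 0.01 in 384-well plates with TSB, LB Lennox or CY at 37 °C, and OD595 was read every 30 min for 14 h against a first-reading background.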

S. aureus DSM 20231 [6] = experiment: as above
In short: as §2

B. subtilis 168 [7] = experiment: as above
In short: as §2

S. aureus Newman [8] = experiment: as above
In short: as §2
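Wherever Bliss interaction score (quartile over a dose matrix) is given: first quartile when negative (synergy) and third quartile when positive (antagonism).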
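Wherever fitness (endpoint OD595 vs no drug) is given: OD595 on entry to stationary phase over no-drug wells; at most 1.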

COc1cccc2c1C(=O)c1c(O)c3c(c(O)c1C2=O)C[C@@](O)(C(=O)CO)C[C@@H]3O[C@H]1C[C@H](N)[C@H](O)[C@H](C)O1 [Doxorubicin] + COc1c(N2C[C@@H]3CCCN[C@@H]3C2)c(F)cc2c(=O)c(C(=O)O)cn(C3CC3)c12 [Moxifloxacin]
Conditions | Bliss interaction score
B. subtilis 168 [3] | -0.0247
S. aureus DSM 20231 [2] | 0.0448
S. aureus Newman [4] | 0.177
S. pneumoniae D39V [1] | -0.0668

fitness
Conditions | first compound 0.25 µg/mL | first compound 0.5 µg/mL | first compound 0.625 µg/mL | first compound 1 µg/mL | first compound 1.25 µg/mL | first compound 2.5 µg/mL
B. subtilis 168 [7], partner 0.0312 µg/mL | – | – | 0.0436 | – | 0.0321 | 0.0239
B. subtilis 168 [7], partner 0.0625 µg/mL | – | – | 0.0396 | – | 0.0329 | 0.0327
B. subtilis 168 [7], partner 0.125 µg/mL | – | – | 0.0249 | – | 0.0462 | 0.026
B. subtilis 168 [7], partner 2 µg/mL | – | – | 0.0338 | – | 0.0341 | 0.0223
B. subtilis 168 [7], partner 4 µg/mL | – | – | 0.0299 | – | 0.0351 | 0.0369
B. subtilis 168 [7], partner 8 µg/mL | – | – | 0.0347 | – | 0.0318 | 0.0314
S. aureus DSM 20231 [6], partner 0.0075 µg/mL | – | – | 0.751 | – | 0.78 | 0.735
S. aureus DSM 20231 [6], partner 0.015 µg/mL | – | – | 0.759 | – | 0.764 | 0.706
S. aureus DSM 20231 [6], partner 0.03 µg/mL | – | – | 0.623 | – | 0.631 | 0.618
S. aureus Newman [8], partner 0.0075 µg/mL | – | – | 0.756 | – | 0.722 | 0.659
S. aureus Newman [8], partner 0.015 µg/mL | – | – | 0.66 | – | 0.667 | 0.611
S. pneumoniae D39V [5], partner 0.005 µg/mL | 0.916 | 0.919 | – | 0.812 | – | –
S. pneumoniae D39V [5], partner 0.01 µg/mL | 0.955 | 0.911 | – | 0.857 | – | –
S. pneumoniae D39V [5], partner 0.02 µg/mL | 0.894 | 0.822 | – | 0.779 | – | –
S. pneumoniae D39V [5], partner 0.0312 µg/mL | 0.0684 | 0.0433 | – | 0.0394 | – | –
S. pneumoniae D39V [5], partner 0.0625 µg/mL | 0.0549 | 0.0614 | – | 0.0753 | – | –
S. pneumoniae D39V [5], partner 0.125 µg/mL | 0.0583 | 0.0523 | – | 0.0416 | – | –

fitness, S. aureus DSM 20231 [6], one replicate
Conditions | first compound 0.625 µg/mL | first compound 1.25 µg/mL | first compound 2.5 µg/mL
partner 0.06 µg/mL | 0.664 | 0.655 | 0.638
partner 0.12 µg/mL | 0.575 | 0.531 | 0.537

C[C@@H]1O[C@@H]1P(=O)(O)O [Fosfomycin] + CC1=C\[C@@H](O)CC(=O)Cc2nc(co2)C(=O)N2CCC=C2C(=O)O[C@H](C(C)C)[C@H](C)/C=C/C(=O)NC\C=C\1 [Virginiamycin M1]
Conditions | Bliss interaction score
B. subtilis 168 [3] | 0.0317
S. aureus DSM 20231 [2] | -0.0507
S. aureus Newman [4] | -0.0636
S. pneumoniae D39V [1] | -0.0376

fitness, one replicate
Conditions | first compound 0.781 µg/mL | first compound 1.25 µg/mL | first compound 1.562 µg/mL | first compound 2.5 µg/mL | first compound 3.124 µg/mL | first compound 5 µg/mL
S. aureus DSM 20231 [6], partner 0.5 µg/mL | 0.847 | – | 0.614 | – | 0.412 | –
S. aureus DSM 20231 [6], partner 1 µg/mL | 0.771 | – | 0.643 | – | 0.386 | –
S. aureus Newman [8], partner 0.5 µg/mL | 0.626 | – | 0.557 | – | 0.299 | –
S. aureus Newman [8], partner 1 µg/mL | 0.614 | – | 0.478 | – | 0.182 | –
S. aureus Newman [8], partner 2 µg/mL | 0.463 | – | 0.297 | – | 0.0494 | –
S. pneumoniae D39V [5], partner 0.15 µg/mL | – | 0.968 | – | 0.926 | – | 0.892
S. pneumoniae D39V [5], partner 0.3 µg/mL | – | 0.89 | – | 0.908 | – | 0.897

fitness
Conditions | partner 0.0625 µg/mL | partner 0.125 µg/mL | partner 0.25 µg/mL | partner 0.5 µg/mL | partner 1 µg/mL | partner 2 µg/mL
B. subtilis 168 [7], first compound 1.562 µg/mL | 0.728 | 0.688 | 0.727 | – | – | –
B. subtilis 168 [7], first compound 3.124 µg/mL | 0.603 | 0.565 | 0.576 | – | – | –
B. subtilis 168 [7], first compound 6.248 µg/mL | 0.488 | 0.43 | 0.427 | – | – | –
S. aureus DSM 20231 [6], first compound 0.781 µg/mL | 0.755 | 0.783 | 0.783 | – | – | –
S. aureus DSM 20231 [6], first compound 1.562 µg/mL | 0.533 | 0.581 | 0.605 | – | – | –
S. aureus DSM 20231 [6], first compound 3.124 µg/mL | 0.487 | 0.49 | 0.506 | – | – | –
S. aureus Newman [8], first compound 0.781 µg/mL | 0.538 | 0.567 | 0.555 | – | – | –
S. aureus Newman [8], first compound 1.562 µg/mL | 0.503 | 0.511 | 0.528 | – | – | –
S. aureus Newman [8], first compound 3.124 µg/mL | 0.173 | 0.168 | 0.149 | – | – | –
S. pneumoniae D39V [5], first compound 1.25 µg/mL | – | – | – | 0.958 | 0.944 | 0.928
S. pneumoniae D39V [5], first compound 2.5 µg/mL | – | – | – | 0.987 | 0.956 | 0.905
S. pneumoniae D39V [5], first compound 5 µg/mL | – | – | – | 0.852 | 0.831 | 0.854

Source: the supplement of paper PMC10627819
